These results are taken from US6358984B1, “2,4-dioxopyrrolidine and 2,4-dioxotetrahydrofuran derivatives and medicines containing the same as the active ingredient” (Lead Chemical Co., Ltd., priority 1996, dated 2002).

One series relates to aortae of guinea pigs. The experiment in a line: Inhibition of vascular contraction caused by angiotensin II using pieces of the aortae of guinea pigs. In kind it is cell-based. The note with it: guinea pig chest aorta, contraction induced by angiotensin II, read-out: Vascular contraction inhibition effect IC50. Here is the method: Male Hartly guinea pigs (350 to 400 g) were contused on the head and sacrificed by allowing their blood to discharge from the arteria carotis communis. Immediately after death, the chest aorta was removed. A spiral sample of width 2 to 3 mm and length 20 to 25 mm was cut from the aorta, and was suspended in 4.5 ml of Krebs-Henseleit (K-H) solution (120 mM NaCl, 4.7 mM KCl, […], 1.2 mM KH2PO4, 2.5 mM CaCl2, 25 mM NaHCO3, and 10 mM glucose) in a Magnus vessel. The K-H solution in the Magnus vessel was maintained at 37° C., and a mixture gas of 95% O2 and 5% CO2 was continuously bubbled through the solution. First, 1 g of initial tension was applied to the sample, which was then left to stand rest for about 30 minutes, and 45 μl of 4M KCl solution was added to the solution to induce contraction. After contraction had stabilized, a washing operation was performed to replace the K-H solution. Then, after the sample was left to stand for 30 minutes, 45 μl of solvent DMSO was added to incubate the sample for 15 minutes, and 45 μl of angiotensin II solution (3×10^−8M) was added to induce contraction. This operation was repeated three times and 100% contraction was used as the average. Subsequently, the sample was stabilized by washing. Then, a 45 μl sample of each test compound prepared for each concentration (3×10^−5M to 10^−7M) using DMSO as a solvent was used to observe the inhibition effect of angiotensin II on vascular contraction by performing the same operation as described above. The contraction reaction was recorded on a recorder (RTA-1100, Japan Photoelectronics) via an equi-scale pressure transducer (TB-651T, Japan Photoelectronics). The angiotensin II inhibition effects of the test compounds were evaluated using the IC50 value.

The subject of series [1] is hypertension caused by angiotensin II. The experiment in a line: Inhibition effect in the hypertension caused by angiotensin II using rats. The class given is in vivo, rat. To be noted: i. v., male SD rats, angiotensin II 100 ng/kg; for inhibition in vivo at 1 mg/kg: Rattus norvegicus, iv. Here is the method: Male SD rats (age; 11 weeks; 310 to 330 g) Were used, and indwelling cannula were placed in the femoral aorta and the vena cava, under anesthesia with inactin. The arterial cannula was connected to a pressure transducer to record the blood pressure via a carrier amplifier (AP-601G Japan Photoelectronics) using a polygraph system (RM-6000 Japan Photoelectronics). Prior to tests using the test compounds, 100 ng/kg-equivalent angiotensin II (50 μl of serum solution from the rat) was administered using a regular-pulse cannula to check the hypertensive action. Then, 30 minutes later, a 1 mg/kg-equivalent test compound (50 μl of serum solution from the rat) was administered using the regular-pulse cannula, and similar administration of angiotensin II was performed 5 and 60 minutes later to check the corresponding hypertensive action. The hypertensive effect resulting from the administration of only angiotensin II was taken as a reference value of 100% to determine the antihypertensive rates of the test compounds.

For another series, the target named is T1, angiotensin II receptor (Oryctolagus cuniculus, UniProt P34976).
T1 construct: fraction of angiotensin II receptor membrane ([…]) prepared from rabbit adrenal gland; from tissue; host or cells: rabbit adrenal gland membrane fraction
T1 sequence (P34976 1-359): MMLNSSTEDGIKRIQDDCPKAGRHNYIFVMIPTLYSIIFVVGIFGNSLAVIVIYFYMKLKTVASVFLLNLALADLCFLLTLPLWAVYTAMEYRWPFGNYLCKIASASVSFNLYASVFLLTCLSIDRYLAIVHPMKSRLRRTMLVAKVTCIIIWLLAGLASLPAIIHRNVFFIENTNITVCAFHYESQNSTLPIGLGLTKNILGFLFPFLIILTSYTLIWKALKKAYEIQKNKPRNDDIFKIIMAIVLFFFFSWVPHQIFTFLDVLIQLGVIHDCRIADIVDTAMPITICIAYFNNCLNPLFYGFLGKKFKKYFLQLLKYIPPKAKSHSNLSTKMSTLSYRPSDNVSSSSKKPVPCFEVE
Nature of the series: Binding inhibition of 3H labeled angiotensin II to angiotensin II receptor membrane fraction. Further details: species or system rabbit. To be noted: rabbit adrenal gland membrane, 3H labeled angiotensin II 10^-9M; read-out: Receptor binding inhibition effect IC50. Here is the method: The method of Cox et. al (Biochemical Pharmacology 33, 4057-4064 (1984) was modified to conduct angiotensin II receptor binding inhibition experiments. The present compounds (10^−5M to 10^−9M) and ^3H labeled angiotensin II (10^−9M) were added to a fraction of angiotensin II receptor membrane ([…]) prepared from rabbit adrenal gland and were allowed to react in a 20 mM Tris HCl buffer (pH: 7.0) containing 120 mM NaCl, 5 mM EDTA, 0.1 mM PMSF, and 0.2% BSA at 30° C. for 20 minutes so that the final volume was 540 μl. Then, the reaction mixture was quickly passed through a filter (whatman GF/B), and the filter was then rinsed three times in 4 ml of the buffer cooled in ice. Then, the radioactivity of receptor binding ^3H labeled angiotensin II captured on the filter was measured using a liquid scintillation counter. The angiotensin II receptor binding inhibition activity of the present compounds was evaluated based on the concentration (IC 50) required to replace 50% of the total amount of specifically binding ^3H labeled angiotensin II.

Like-named read-outs stand apart in the source and are kept apart here.

In the case of “5-Butyl-3-(3-fluorophenyl)-1-[2′-[(4-hydroxy-2(5H)-furanone-5(Z)-ylidene)methyl]biphenyl-4-yl]methyl-1H-1,2,4-triazole [Compound 2h]”, the IC50 with aortae of guinea pigs was found to be 220 µM. Further, the “Inhibition effect in the hypertension by angiotensin II, 5 minutes after administration” value in series [1] (1 mg/kg, 5 minutes after administration) was “+ (30% > + ≧ 10%)”. Also, the “Inhibition effect in the hypertension by angiotensin II, 60 minutes after administration” value in series [1] (1 mg/kg, 60 minutes after administration) is listed as “− (10% > −)”.

On to `CCCc1nc(CCC)n(Cc2ccc(-c3ccccc3/C=C3\NC(=O)CC3=O)cc2)n1` [Compound 1a, 3,5-Dipropyl-1-[2′-[(2,4-dioxopyrrolidine-5(Z)-ylidene)methyl]biphenyl-4-yl]methyl-1H-1,2,4-triazole], for which the melting point is 179 to 180 °C. For the same compound, the IC50 on angiotensin II receptor worked out at 220 nM. Further, in the series with aortae of guinea pigs (Cavia porcellus), the half-inhibitory concentration (IC50) was > 300 µM. Besides, in series [1] (5 min, 5 minutes after administration, read-out: Inhibition effect in the hypertension by angiotensin II, 5 minutes after administration), the inhibition in vivo at 1 mg/kg fell in the range of 30 to 70%. Moreover, the inhibition in vivo at 1 mg/kg in series [1] (1 h, 60 minutes after administration, read-out: Inhibition effect in the hypertension by angiotensin II, 60 minutes after administration) is < 10%.

`CC(C)c1nc(C(C)C)n(Cc2ccc(-c3ccccc3/C=C3\NC(=O)CC3=O)cc2)n1` [Compound 1b, 3,5-Diisopropyl-1-[2′-[(2,4-dioxopyrrolidine-5-(Z)-ylidene)methyl]biphenyl-4-yl]methyl-1H-1,2,4-triazole] showed a melting point of 141 to 142 °C. Also, at angiotensin II receptor, the IC50 was > 7000 nM. In the series with aortae of guinea pigs (Cavia porcellus), the 50% inhibitory concentration (IC50) was > 300 µM.

Turning to `CCCCc1nc(C2CC2)nn1Cc1ccc(-c2ccccc2/C=C2\NC(=O)CC2=O)cc1` [Compound 1c, 5-Butyl-3-cyclopropyl-1-[2′-[(2,4-dioxopyrrolidine-5(Z)-ylidene)methyl]biphenyl-4-yl]methyl-1H-1,2,4-triazole], the melting point was 166 to 168 °C. For the same compound, on angiotensin II receptor, the half-inhibitory concentration (IC50) turned out to be 2000 nM. Moreover, in the series on aortae of guinea pigs (Cavia porcellus), the half-inhibitory concentration (IC50) is > 300 µM.

In turn, `CCCCc1nc(-c2ccccc2)nn1Cc1ccc(-c2ccccc2/C=C2\NC(=O)CC2=O)cc1` [Compound 1e, 5-Butyl-3-phenyl-1-[2′-[(2,4-dioxopyrrolidine-5(Z)-ylidene)methyl]biphenyl-4-yl]methyl-1H-1,2,4-triazole] gave a melting point of 180 to 181 °C. In addition, the IC50 at angiotensin II receptor was > 6300 nM. Also, the IC50 in the series on aortae of guinea pigs (Cavia porcellus) was > 300 µM.

`CCCCc1nc(-c2ccc(F)cc2)nn1Cc1ccc(-c2ccccc2/C=C2\NC(=O)CC2=O)cc1` [Compound 1g, 5-Butyl-3-(4-fluorophenyl)-1-[2′-[(2,4-dioxopyrrolidine-5(Z)-ylidene)methyl]biphenyl-4-yl]methyl-1H-1,2,4-triazole] showed a melting point of 188 to 190 °C. The half-inhibitory concentration (IC50) at angiotensin II receptor was > 6100 nM. Also, the IC50 with aortae of guinea pigs (Cavia porcellus) was > 300 µM.

Compound `CCCCc1nc(-c2ccccc2F)nn1Cc1ccc(-c2ccccc2/C=C2\NC(=O)CC2=O)cc1` [Compound 1h, 5-Butyl-3-(2-fluorophenyl)-1-[2′-[(2,4-dioxopyrrolidine-5(Z)-ylidene)methyl]biphenyl-4-yl]methyl-1H-1,2,4-triazole] came in with a melting point of 169 to 170 °C. In addition, the 50% inhibitory concentration (IC50) at angiotensin II receptor is 4500 nM. In the series on aortae of guinea pigs (Cavia porcellus), the IC50 was > 300 µM.

`CCCCc1nc(-c2ccncc2)nn1Cc1ccc(-c2ccccc2/C=C2\NC(=O)CC2=O)cc1` [Compound 1i, 5-Butyl-3-(pyridine-4-yl)-1-[2′-[(2,4-dioxopyrrolidine-5(Z)-ylidene)methyl]biphenyl-4-yl]methyl-1H-1,2,4-triazole]: the melting point was in the range of 144 to 145 °C. Further, the half-inhibitory concentration (IC50) on angiotensin II receptor is > 6300 nM. Further, the concentration for half-maximal inhibition (IC50) in the series with aortae of guinea pigs (Cavia porcellus) was > 300 µM.

In turn, `CCCCc1nc(-c2ccco2)nn1Cc1ccc(-c2ccccc2/C=C2\NC(=O)CC2=O)cc1` [Compound 1j, 5-Butyl-3-(furan-2-yl)-1-[2′-[(2,4-dioxopyrrolidine-5(Z)-ylidene)methyl]biphenyl-4-yl]methyl-1H-1,2,4-triazole] had a melting point of 169 to 170 °C. Further, the IC50 at angiotensin II receptor turned out to be 2200 nM. In the series with aortae of guinea pigs (Cavia porcellus), the IC50 is > 300 µM.

`CCCCc1nc(-c2cccs2)nn1Cc1ccc(-c2ccccc2/C=C2\NC(=O)CC2=O)cc1` [Compound 1k, 5-Butyl-3-(thiophene-2-yl)-1-[2′-[(2,4-dioxopyrrolidine-5(Z)-ylidene)methyl]biphenyl-4-yl]methyl-1H-1,2,4-triazole] displayed a melting point of 186 to 187 °C. For the same compound, the IC50 at angiotensin II receptor turned out to be 4200 nM. In the series on aortae of guinea pigs (Cavia porcellus), the 50% inhibitory concentration (IC50) was > 300 µM.

In turn, `CC(C)c1nc(C(C)C)n(Cc2ccc(-c3ccccc3/C=C3\OC(=O)C=C3O)cc2)n1` [Compound 2b, 3,5-Diisopropyl-1-[2′-[(4-hydroxy-2(5H)-furanone-5(Z)-ylidene)methyl]biphenyl-4-yl]methyl-1H-1,2,4-triazole] yielded a melting point of 191 to 193 °C. For the same compound, the half-maximal inhibitory concentration (IC50) at angiotensin II receptor was found to be 930 nM. Further, the IC50 in the series on aortae of guinea pigs (Cavia porcellus) is > 300 µM.

Regarding `CCCCc1nc(-c2ccc(F)cc2)nn1Cc1ccc(-c2ccccc2/C=C2\OC(=O)C=C2O)cc1` [Compound 2g, 5-Butyl-3-(4-fluorophenyl)-1-[2′-[(4-hydroxy-2(5H)-furanone-5(Z)-ylidene)methyl]biphenyl-4-yl]methyl-1H-1,2,4-triazole], the melting point was 175 to 176 °C. Besides, the IC50 at angiotensin II receptor amounted to 690 nM. The IC50 in the series with aortae of guinea pigs (Cavia porcellus) is > 300 µM.

Consider `CCCCc1nc(-c2cccc(F)c2)nn1Cc1ccc(-c2ccccc2/C=C2\OC(=O)C=C2O)cc1` [Compound 2h, 5-Butyl-3-(3-fluorophenyl)-1-[2′-[(4-hydroxy-2(5H)-furanone-5(Z)-ylidene)methyl]biphenyl-4-yl]methyl-1H-1,2,4-triazole], for which the melting point was 184 to 185 °C.

The compound `CCCCc1nnc(CCCC)n1Cc1ccc(-c2ccccc2/C=C2\NC(=O)CC2=O)cc1` [Compound 19a] came in with a melting point of 185 to 186 °C. Further, the half-inhibitory concentration (IC50) on angiotensin II receptor worked out at 8000 nM. Moreover, in the series on aortae of guinea pigs (Cavia porcellus), the half-inhibitory concentration (IC50) is > 300 µM.

In the case of `CCCCc1nnc(CCCC)n1Cc1ccc(-c2ccccc2/C=C2\OC(=O)C=C2O)cc1` [Compound 19b, 3,5-Dibutyl-1-[2′-[(4-hydroxy-2(5H)-furanone-5(Z)-ylidene)-methyl]biphenyl-4-yl]methyl-4H-1,2,4-triazole], the IC50 on angiotensin II receptor was 680 nM; in the series on aortae of guinea pigs (Cavia porcellus), > 300 µM.

The term IC50 denotes the concentration needed to halve the response being measured. What is called melting point is the temperature, or range, at which the solid turns liquid.
